# From ChEMBL document CHEMBL1201862, “PubChem BioAssay data set” (2004)
#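 Step 1: Grow cells in 96-well plates. Step 2: Expose to compound for 48 hours at 5 concentrations. Step 3: Interpolate endpoints linearly; if unreached, use highest concentration. GI50 marks 50% less growth.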 Calls of active or inactive are those of the source. Cut-off read from the data, not from the text of the source: active = GI50 up to about 1.1 µM and inactive = higher.
# What was measured:
# Experiment in all cases: DTP human tumour cell line panel, 48 h
# HOP-92 = test system: HOP-92
# IGROV-1 = test system: IGROV-1
# UACC-257 = test system: UACC-257
# HCT-15 = test system: HCT-15
# RPMI-8226 = test system: RPMI-8226
# SF-539 = test system: SF-539
# SW-620 = test system: SW-620
# NCI-H226 = test system: NCI-H226
# Malme-3M = test system: Malme-3M
# UO-31 = test system: UO-31
# 786-0 = test system: 786-0
# UACC-62 = test system: UACC-62
# SN12C = test system: SN12C
# SK-OV-3 = test system: SK-OV-3
# SNB-19 = test system: SNB-19
# K562 = test system: K562
# HL-60 = test system: HL-60
SMILES,GI50 (HOP-92),GI50 (IGROV-1),GI50 (UACC-257),GI50 (HCT-15) [µM],GI50 (RPMI-8226),GI50 (SF-539),GI50 (SW-620),GI50 (NCI-H226),GI50 (Malme-3M),GI50 (UO-31),GI50 (786-0),GI50 (UACC-62),GI50 (SN12C),GI50 (SK-OV-3),GI50 (SNB-19),GI50 (K562),GI50 (HL-60)
Cn1cnc([N+](=O)[O-])c1Sc1nc2cccnc2s1,18.5 µM (inactive),17.5 µM (inactive),13.3 µM (inactive),11.6,19.2 µM (inactive),19.8 µM (inactive),12 µM (inactive),17.1 µM (inactive),10.1 µM (inactive),17.1 µM (inactive),14.5 µM (inactive),17.5 µM (inactive),17.8 µM (inactive),51.3 µM (inactive),78.9 µM (inactive),,
CCc1cccc(C(C)CC)c1NC(=O)CC1C(=O)Nc2ccccc2[S+]1[O-] (stereo not drawn),16.7 µM (inactive),19.9 µM (inactive),> 100 µM (inactive),31,31.3 µM (inactive),23 µM (inactive),39.5 µM (inactive),> 100 µM (inactive),37.2 µM (inactive),> 100 µM (inactive),37.4 µM (inactive),10 µM (inactive),91.2 µM (inactive),,28.5 µM (inactive),42.3 µM (inactive),49.4 µM (inactive)
O=C(CNc1nncs1)NO,38.2 µM (inactive),> 100 µM (inactive),> 100 µM (inactive),> 100,> 100 µM (inactive),> 100 µM (inactive),> 100 µM (inactive),,> 100 µM (inactive),> 100 µM (inactive),> 100 µM (inactive),> 100 µM (inactive),> 100 µM (inactive),> 100 µM (inactive),> 100 µM (inactive),> 100 µM (inactive),> 100 µM (inactive)
O=c1cccccc1NCCCCNc1cccccc1=O,,> 100 µM (inactive),> 100 µM (inactive),84.7,43.4 µM (inactive),,67.6 µM (inactive),73.6 µM (inactive),29.4 µM (inactive),42 µM (inactive),> 100 µM (inactive),72.6 µM (inactive),> 100 µM (inactive),> 100 µM (inactive),61 µM (inactive),> 100 µM (inactive),49.7 µM (inactive)
Cc1c(C(=O)Nc2ccc(Cl)cc2)nc(N)nc1-c1cccc(Cl)c1,28.4 µM (inactive),> 100 µM (inactive),> 100 µM (inactive),,,> 100 µM (inactive),62.7 µM (inactive),> 100 µM (inactive),> 100 µM (inactive),> 100 µM (inactive),> 100 µM (inactive),> 100 µM (inactive),> 100 µM (inactive),> 100 µM (inactive),> 100 µM (inactive),38.5 µM (inactive),39.2 µM (inactive)
COc1ccc2c(c1)[n+]([O-])c(-c1ccc([N+](=O)[O-])cc1)c(N)[n+]2[O-],> 100 µM (inactive),75.2 µM (inactive),81.3 µM (inactive),,,> 100 µM (inactive),> 100 µM (inactive),> 100 µM (inactive),> 100 µM (inactive),> 100 µM (inactive),> 100 µM (inactive),,> 100 µM (inactive),> 100 µM (inactive),> 100 µM (inactive),32.6 µM (inactive),57.5 µM (inactive)
Nc1c(Cl)ncnc1NCCCCCCCCCCCCNc1ncnc(Cl)c1N,1.32 µM (inactive),1.55 µM (inactive),0.0671 µM (active),1.88,1.5 µM (inactive),3.37 µM (inactive),2.69 µM (inactive),,1.94 µM (inactive),1.05 µM (active),2.86 µM (inactive),2.05 µM (inactive),3.13 µM (inactive),4.18 µM (inactive),4.57 µM (inactive),< 0.01 µM (active),0.051 µM (active)
CC(=O)OCC(OC(C)=O)C(OC(C)=O)C(OC(C)=O)C(=O)CNn1c(-c2ccccc2Cl)nc2ccc(Br)cc2c1=O (stereo not drawn),,,> 100 µM (inactive),78.7,27 µM (inactive),> 100 µM (inactive),> 100 µM (inactive),,> 100 µM (inactive),85.5 µM (inactive),> 100 µM (inactive),30.6 µM (inactive),36.3 µM (inactive),> 100 µM (inactive),81.1 µM (inactive),44 µM (inactive),23.8 µM (inactive)
CN[C@H](C)[C@@H](OC)c1ccccc1,> 100 µM (inactive),> 100 µM (inactive),> 100 µM (inactive),> 100,> 100 µM (inactive),,> 100 µM (inactive),> 100 µM (inactive),> 100 µM (inactive),> 100 µM (inactive),> 100 µM (inactive),> 100 µM (inactive),> 100 µM (inactive),> 100 µM (inactive),> 100 µM (inactive),> 100 µM (inactive),> 100 µM (inactive)
CC(=O)NC(CCCCNCc1ccccc1)C(=O)NCc1ccccc1 (stereo not drawn),> 100 µM (inactive),> 100 µM (inactive),> 100 µM (inactive),> 100,> 100 µM (inactive),> 100 µM (inactive),> 100 µM (inactive),> 100 µM (inactive),> 100 µM (inactive),> 100 µM (inactive),> 100 µM (inactive),> 100 µM (inactive),> 100 µM (inactive),> 100 µM (inactive),> 100 µM (inactive),> 100 µM (inactive),
N#CC(C#N)=Cc1cccc(Oc2ccccc2)c1,,26.8 µM (inactive),16.8 µM (inactive),35.1,20.9 µM (inactive),18.4 µM (inactive),25.6 µM (inactive),33 µM (inactive),20.1 µM (inactive),15.9 µM (inactive),18.6 µM (inactive),22.3 µM (inactive),22.5 µM (inactive),71.6 µM (inactive),22 µM (inactive),23.7 µM (inactive),18.5 µM (inactive)
N=C(N)NS(=O)(=O)c1ccc(NCc2c3ccccc3[n+]([O-])c3ccccc23)cc1,0.394 µM (active),19.8 µM (inactive),74.6 µM (inactive),18.4,12.4 µM (inactive),,16.4 µM (inactive),9.55 µM (inactive),20 µM (inactive),15.2 µM (inactive),19.7 µM (inactive),22.5 µM (inactive),15 µM (inactive),> 100 µM (inactive),18.8 µM (inactive),25.7 µM (inactive),6.08 µM (inactive)
N#CC(C(=N/O)/C(=N/O)C(C#N)c1ccc(Cl)cc1)c1ccc(Cl)cc1 (stereo not drawn),> 100 µM (inactive),> 100 µM (inactive),> 100 µM (inactive),55.2,40.5 µM (inactive),> 100 µM (inactive),76.7 µM (inactive),75.5 µM (inactive),> 100 µM (inactive),> 100 µM (inactive),> 100 µM (inactive),91.4 µM (inactive),> 100 µM (inactive),> 100 µM (inactive),> 100 µM (inactive),,
CCc1ccccc1NC(=O)C1=C(C)NC(C)=C(C(=O)Nc2ccccc2CC)C1c1ccc2c(c1)OCO2,13.6 µM (inactive),29.4 µM (inactive),30.9 µM (inactive),,14.5 µM (inactive),16.8 µM (inactive),28.9 µM (inactive),24.3 µM (inactive),25.3 µM (inactive),18.5 µM (inactive),30.4 µM (inactive),,41.2 µM (inactive),30.2 µM (inactive),49.3 µM (inactive),26.5 µM (inactive),16.9 µM (inactive)
Cc1ccc(S(=O)(=O)NC2CCCCO2)cc1 (stereo not drawn),> 100 µM (inactive),> 100 µM (inactive),> 100 µM (inactive),> 100,> 100 µM (inactive),> 100 µM (inactive),> 100 µM (inactive),> 100 µM (inactive),> 100 µM (inactive),> 100 µM (inactive),> 100 µM (inactive),> 100 µM (inactive),> 100 µM (inactive),> 100 µM (inactive),> 100 µM (inactive),> 100 µM (inactive),
CCC1(CN(C)C)CC/C(=C\c2ccc(OC)c(OC)c2)C1=O (stereo not drawn),> 100 µM (inactive),> 100 µM (inactive),> 100 µM (inactive),> 100,18.2 µM (inactive),> 100 µM (inactive),> 100 µM (inactive),> 100 µM (inactive),> 100 µM (inactive),> 100 µM (inactive),> 100 µM (inactive),> 69.3 µM (inactive),> 100 µM (inactive),> 100 µM (inactive),> 100 µM (inactive),57.4 µM (inactive),
O=C(NC1CCC[C@H]1OC(=O)c1ccccc1)c1ccccc1 (stereo partly drawn),25.6 µM (inactive),> 100 µM (inactive),> 100 µM (inactive),,,> 100 µM (inactive),> 100 µM (inactive),13.7 µM (inactive),0.0489 µM (active),16.1 µM (inactive),> 100 µM (inactive),50.9 µM (inactive),66.4 µM (inactive),43.2 µM (inactive),> 100 µM (inactive),38 µM (inactive),32.2 µM (inactive)
Nc1ccccc1S(=O)(=O)N(CC(=O)O)c1ccccc1,> 100 µM (inactive),> 100 µM (inactive),> 100 µM (inactive),> 100,> 100 µM (inactive),> 100 µM (inactive),> 100 µM (inactive),,> 100 µM (inactive),> 100 µM (inactive),> 100 µM (inactive),> 100 µM (inactive),> 100 µM (inactive),> 100 µM (inactive),> 100 µM (inactive),> 100 µM (inactive),> 100 µM (inactive)
